Experimental findings from PubChem BioAssay (NCI) are described below.

Some test systems named below: K-562 leukemia; TK-10 renal; SF-295 CNS; NCI-H522 lung; HCT-15 colon; RPMI-8226 leukemia; UACC-257 melanoma; IGROV1 ovarian; HCT-116 colon.
Holding throughout (experiment): inhibition of tumour cell growth, NCI panel, 48 h

Structures are written as SMILES.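 Values below derive from 48-hour exposures of cells grown in 96-well plates, with endpoints linearly interpolated between the two concentrations bracketing the appropriate inhibition level. At the GI50, growth is halved. TGI marks complete inhibition of growth.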

Consider `C[N+](C)(C)CC1CCCC(C[N+](C)(C)C)C1O` (stereo not drawn), for which the TGI with K-562 leukemia, with TK-10 renal, in the test on SF-295 CNS, in the test with NCI-H522 lung, in the test with HCT-15 colon and with RPMI-8226 leukemia was more than 100 µM each time. For the same molecule, the TGI in the test with UACC-257 melanoma, with IGROV1 ovarian and in the test on HCT-116 colon was more than 100 µM throughout.
Turning to `COC(=O)/C(=N/NC(N)=O)C(C(=O)OC)C(=O)C(=O)Nc1ccc(Cl)cc1` (stereo not drawn), the TGI in the test with K-562 leukemia was more than 62.6 µM; in the test with TK-10 renal, more than 100 µM; in the test with SF-295 CNS, more than 100 µM; in the test on NCI-H522 lung it was more than 100 µM; with HCT-15 colon, more than 100 µM; in the test with RPMI-8226 leukemia, more than 100 µM. The TGI in the test on UACC-257 melanoma, in the test with IGROV1 ovarian and in the test on HCT-116 colon was more than 100 µM throughout.
Regarding `FC1OC2OC1C(OCc1ccccc1)C(OCc1ccccc1)C2OCc1ccccc1` (stereo not drawn), the TGI with K-562 leukemia is 75.1 µM; with TK-10 renal, more than 100 µM; in the test on SF-295 CNS, more than 100 µM; with HCT-15 colon it was more than 100 µM; with RPMI-8226 leukemia, 61.2 µM; with UACC-257 melanoma, more than 100 µM. Also, the TGI in the test with IGROV1 ovarian was more than 100 µM; with HCT-116 colon, 63.2 µM.
Take `COc1ccc(CCN=C2CCC(C(=O)NCCc3ccc(OC)c(OC)c3)N2)cc1OC` (stereo not drawn): the TGI in the test on K-562 leukemia, in the test with TK-10 renal, in the test with SF-295 CNS, in the test on NCI-H522 lung, in the test on HCT-15 colon and with RPMI-8226 leukemia was more than 100 µM in each case. In addition, the TGI with UACC-257 melanoma, with IGROV1 ovarian and in the test with HCT-116 colon was more than 100 µM in each case.
On to `COc1nc(NC2OC(COC(C)=O)C(OC(C)=O)C(OC(C)=O)C2OC(C)=O)c(-c2csc(N)n2)c(=O)n1C` (stereo not drawn), for which the TGI with K-562 leukemia, in the test on TK-10 renal, in the test with SF-295 CNS, in the test on NCI-H522 lung, in the test on HCT-15 colon and in the test with RPMI-8226 leukemia was more than 100 µM throughout. Besides, the TGI with UACC-257 melanoma, in the test on IGROV1 ovarian and with HCT-116 colon was more than 100 µM each time.
Regarding `O=C(Nc1cccc(NC(=O)c2cc(=O)c3ccccc3o2)n1)c1cc(=O)c2ccccc2o1`, the TGI in the test with K-562 leukemia was more than 100 µM; in the test on TK-10 renal, more than 100 µM; in the test on NCI-H522 lung it was 48.3 µM; with HCT-15 colon, more than 100 µM; in the test on RPMI-8226 leukemia, 81.3 µM; with UACC-257 melanoma it was more than 100 µM. The TGI with IGROV1 ovarian and in the test on HCT-116 colon was more than 100 µM each time.
Turning to `CCOc1ccc(C(CN2CCOCC2)C(C)=O)cc1OC` (stereo not drawn), the TGI was 13.9 µM in the test on K-562 leukemia; 31 µM in the test with TK-10 renal; more than 100 µM with SF-295 CNS; 2.46 µM in the test on NCI-H522 lung; 22.5 µM with HCT-15 colon; 83.5 µM with RPMI-8226 leukemia. Moreover, the TGI in the test on UACC-257 melanoma is 45.8 µM; with IGROV1 ovarian, 49.6 µM; with HCT-116 colon, 43.5 µM.
As for `CCCCCCCCCCCCCCCCOC(=O)c1cc(O)cc(C(=O)OCCCCCCCCCCCCCCCC)c1`, the TGI in the test on K-562 leukemia, in the test on TK-10 renal, in the test with SF-295 CNS, in the test on NCI-H522 lung, in the test on HCT-15 colon and in the test on RPMI-8226 leukemia was more than 100 µM in each case. Moreover, the TGI in the test with UACC-257 melanoma, with IGROV1 ovarian and with HCT-116 colon was more than 100 µM in each case.
With `C[C@@H]1C[C@]2(C[C@@H](C)C3[C@@H](CC4(C)[C@@H]5CCC6C(C)(C)OC(=O)C=C[C@]67C[C@@]5(CC[C@]34C)OO7)O2)OC1=O` (stereo partly drawn), the TGI in the test on K-562 leukemia was more than 100 µM; in the test on TK-10 renal, more than 100 µM; in the test with SF-295 CNS, more than 100 µM; with NCI-H522 lung, 90.3 µM; in the test on HCT-15 colon it was more than 100 µM; in the test with RPMI-8226 leukemia it was more than 100 µM. Moreover, the TGI in the test with UACC-257 melanoma, in the test with IGROV1 ovarian and in the test on HCT-116 colon was more than 100 µM each time.
In the case of `COC(OC)c1cc2c(cc1C(=O)[C@@]13CCC[C@@H]1NC(=O)O3)OCO2`, the TGI with K-562 leukemia, in the test with TK-10 renal, in the test on SF-295 CNS, in the test on NCI-H522 lung, in the test with UACC-257 melanoma and with IGROV1 ovarian was more than 100 µM each time. Also, in the test on HCT-116 colon, the TGI is more than 100 µM.
Take `O=C1c2ccccc2C(=O)c2nc3ccc(Cl)cc3cc21`: the TGI with K-562 leukemia, with TK-10 renal, in the test on SF-295 CNS, in the test with NCI-H522 lung, in the test with HCT-15 colon and in the test on RPMI-8226 leukemia was more than 100 µM throughout. The TGI in the test on IGROV1 ovarian and in the test with HCT-116 colon was more than 100 µM each time.
Consider `CN1CCc2c1nc(-c1ccc([N+](=O)[O-])cc1)c1c2N(C)CC1`, for which the TGI in the test on K-562 leukemia, in the test on TK-10 renal, in the test on SF-295 CNS, in the test on HCT-15 colon, with RPMI-8226 leukemia and with UACC-257 melanoma was more than 100 µM throughout. The TGI in the test on IGROV1 ovarian and in the test on HCT-116 colon was more than 100 µM each time.
With `O=c1cc(-c2ccccn2)[nH]c2ccc(Cl)cc12`, the TGI in the test on K-562 leukemia is more than 100 µM; with TK-10 renal, more than 100 µM; in the test on SF-295 CNS it was more than 100 µM; in the test on NCI-H522 lung, 97.2 µM; in the test with RPMI-8226 leukemia, more than 100 µM; in the test with UACC-257 melanoma it was more than 100 µM. Further, the TGI in the test with IGROV1 ovarian and in the test with HCT-116 colon was more than 100 µM throughout. Also, the GI50 with SF-295 CNS is 51.5 µM; with HCT-116 colon, 26 µM.
Turning to `COc1ccc(S(=O)(=O)N(C)CC(=O)O)cc1`, the TGI in the test with K-562 leukemia, in the test with TK-10 renal, in the test on SF-295 CNS, in the test with NCI-H522 lung, in the test with HCT-15 colon and with RPMI-8226 leukemia was more than 100 µM each time. Further, the TGI with UACC-257 melanoma and with IGROV1 ovarian was more than 100 µM throughout.
In the case of `Cc1nc(-n2nc(-c3ccccc3)cc2-c2ccccc2)sc1C(/C=C/c1ccc([N+](=O)[O-])cc1)=N/NC(=O)c1ccncc1`, the TGI with K-562 leukemia is more than 100 µM; in the test with TK-10 renal, 82.9 µM; with SF-295 CNS, more than 100 µM; in the test with HCT-15 colon, 96.2 µM; in the test on RPMI-8226 leukemia, more than 100 µM; in the test on UACC-257 melanoma, more than 100 µM. Further, the TGI with IGROV1 ovarian was more than 100 µM; with HCT-116 colon, 21.8 µM.
